pIC50: −log10 of the molar value.
How the values were obtained:
[1] = molecular target: IRAK4 kinase (Homo sapiens (Human), UniProt Q9NWZ3); test: IRAK4 kinase activity inhibition assay (ADP-Glo); type: biochemical; settings: 10 μM ATP, MBP substrate, 60 min at 25° C.
Method: IRAK4 kinase (purchased from Life Technologies, Cat. No.: PR5612U) was diluted to 2 folds of the final concentration (the final concentration is 0.76 ng/μL) with reaction buffer (40 mM Tris-HCl, pH 7.5; 20 mM MgCl2; 0.1 mg/mL BSA; 1 mM DTT), and added to a 384-well plate at 5 μL/well. The test drugs were 10-fold serial diluted from 10 μM to set six concentration points and added to the test wells of the 384-well plate at 2.5 μL/well. After incubation for 10 min at 25° C., 10 μM of ATP and […] of an enzyme reaction substrate, myelin basic protein MBP (purchased from SignalChem, Cat. No.: M42-51N) were added at 2.5 µL/well, and reacted at 25° C. for 60 minutes. After the reaction was completed, the kinase activity assay was performed using the ADP-Glo™ kinase assay kit (purchased from Promega, Cat. No.: V9102) according to the manufacture's instruction, i.e., 10 μL of ADP-Glo reaction reagent was first added and reacted at 25° C. for 40 minutes, 10 μL of the solution to be tested was taken and mixed with 10 μL of ADP-Glo detection reagent, and reacted at 25° C. for 30 minutes. The kinase activity was then detected, and the IC50 values of the test drugs were calculated.

[2] = tested on: TMD-8 cells; test: TMD-8 cell growth inhibition assay (CCK-8); type: cell-based; settings: Homo sapiens, TMD8, 96 hours
Method: The compounds of Examples 9, 98 and 105 of the invention were tested in TMD-8 cell growth inhibition assay. TMD-8 cells (available from Korea Hanmi Research Center) were cultured in RMPI-1640 medium (purchased from Gibco, Cat. No.: 22440) containing 10% fetal bovine serum (purchased from Gibco, Cat. No.: 10099-141). The TMD-8 cells in logarithmic growth phase were seeded in a 96-well plate at 20,000 cells/well/100 μL, and RMPI-1640 medium (100 μL) was added into blank control wells. The test samples were diluted with RMPI-1640 medium to 2 folds of the final concentration (10-fold dilutions starting from 10 μM, setting 6 drug concentrations, and testing in replicate wells at each concentration). The diluted test samples were added to test wells seeded with cells at 100 μL/well, and RMPI-1640 medium (100 μL) was separately added to the positive control wells and the blank control wells. The 96-well plate was placed in the incubator and reacted at 37° C., 5% CO2 for 96 hours. After the reaction was completed, the 96-well plate was taken from the incubator and to each well was added CCK-8 (100 μL) (purchased from DOJINDO, Cat. No.: CK04-11). Then the 96-well plate was put back to the incubator and incubated for another 2 hours. The light absorbance was measured at 450 nm, and the IC50 values were calculated therefrom.

[3] = tested on: TNF-α secretion in THP-1 cells; test: LPS-induced TNF-α secretion assay in THP-1 cells (ELISA); type: cell-based; settings: Homo sapiens; LPS-induced TNF-α secretion in THP-1 cells, 2 hours pre-incubation, 24 hours LPS
Method: The compounds of Examples 9, 98 and 105 of the invention were tested in LPS-induced TNF-α secretion assay in THP-1 cells. Human THP-1 cells (purchased from ATCC, Cat. No.: TIB-202) were cultured in RPMI-1640 medium (purchased from Gibco, Cat. No.: 22440) containing 10% fetal bovine serum (purchased from Gibco, Cat. No.: 10099-141) and 0.05 mM of 2-mercaptoethanol (purchased from Gibco, Cat. No.: 21985). The THP-1 cells in logarithmic growth phase were seeded in a 96-well plate at 2×10^5 cells/well/100 μL. The test samples were diluted with RMPI-1640 medium to 4 folds of the final concentration (5-fold dilutions starting from 10 μM, setting 6 drug concentrations, and testing in replicate wells at each concentration). The diluted test samples were added to the test wells seeded with cells at 50 μL/well, and RMPI-1640 medium (50 μL) was separately added to positive control and negative control wells. The 96-well plate was placed in the incubator at 37° C., 5% CO2 and pre-incubated for 2 hours. The 96-well plate was taken out, and 400 ng/mL of LPS (50 μL) (purchased from Sigma, Cat. No.: L6529-1MG) was added to each well of the test wells and the positive control wells, and RMPI-1640 medium (50 μL) was added to the negative control wells. After incubation in the incubator at 37° C., 5% CO2 for 24 hours, the cell culture supernatant was taken and determined for the content of TNF-α in the supernatant using a human TNF-α ELISA kit (purchased from DKW, Cat. No.: 12-1720-096).

Chain of IRAK4 kinase (Q9NWZ3 whole entry): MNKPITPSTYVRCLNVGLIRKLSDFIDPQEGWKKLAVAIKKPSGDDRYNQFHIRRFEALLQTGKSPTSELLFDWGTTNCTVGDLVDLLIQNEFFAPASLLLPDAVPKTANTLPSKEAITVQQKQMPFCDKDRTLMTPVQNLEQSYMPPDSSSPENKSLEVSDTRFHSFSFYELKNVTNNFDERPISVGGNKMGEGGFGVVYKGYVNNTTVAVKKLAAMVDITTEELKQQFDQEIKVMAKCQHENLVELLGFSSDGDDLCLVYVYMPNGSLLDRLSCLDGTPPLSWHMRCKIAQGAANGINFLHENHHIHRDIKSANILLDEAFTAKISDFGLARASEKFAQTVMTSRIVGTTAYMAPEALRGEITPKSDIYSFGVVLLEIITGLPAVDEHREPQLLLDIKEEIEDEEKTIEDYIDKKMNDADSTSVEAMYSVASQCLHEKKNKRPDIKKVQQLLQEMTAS

Compound	pIC50 [1]	pIC50 [3]	pIC50 [2]
CN1CCC(N(C)c2ccc(Nc3nc(N[C@H]4CC[C@H](O)CC4)c4sccc4n3)cc2)CC1 [Compound 70]	6.00 to 7.00	–	–
O[C@H]1CC[C@H](Nc2nc(Nc3cnn(-c4ccncn4)c3)nc3ccsc23)CC1 [Compound 39]	6.00 to 7.00	–	–
Cn1cc(Nc2nc(O[C@H]3CC[C@@H](N)C3)c3sccc3n2)cn1 [Compound 85]	6.00 to 7.00	–	–
C[C@]1(O)CC[C@H](Nc2nc(Nc3cc(C(=O)NC4CCNCC4)cs3)nc3ccsc23)CC1 [Compound 49]	6.00 to 7.00	–	–
CN1CCN(c2ccc(Nc3nc(N[C@H]4CC[C@](C)(O)CC4)c4sccc4n3)cc2)CC1 [Compound 74]	5.00 to 6.00	–	–
O[C@H]1CC[C@H](Nc2nc(Nc3ccc(OC4CCOC4)cc3)nc3ccsc23)CC1 (stereo partly drawn) [Compound 69, trans-4-((2-((4-((tetrahydrofuran-3-yl)oxy)phenyl)amino)thieno[3,2-d]pyrimidin-4-yl)amino)cyclohexanol]	6.00 to 7.00	–	–
C[C@]1(O)CC[C@H](Nc2nc(Nc3cc(C(=O)NC4CCNCC4)n[nH]3)nc3ccsc23)CC1 [Compound 51]	5.00 to 6.00	–	–
C[C@]1(O)CC[C@H](Nc2nc(Nc3ccc(C(=O)NC4CCNCC4)cc3)nc3ccsc23)CC1 [Compound 66]	6.00 to 7.00	–	–
CCN(CC)[C@H]1CC[C@@H](Nc2nc(Nc3cc(C)ns3)nc3ccsc23)CC1 [Compound 93]	6.00 to 7.00	–	–
Cc1cc(Nc2nc(N[C@H]3CC[C@](C)(O)CC3)c3c(ccn3Cc3cccnc3)n2)sn1 [Compound 106]	6.00 to 7.00	–	–
CN[C@H]1CC[C@@H](Oc2nc(Nc3cc(C)ns3)nc3ccsc23)CC1 [Compound 90]	6.00 to 7.00	–	–
CN[C@H]1CC[C@@H](Nc2nc(Nc3cc(C)ns3)nc3ccsc23)CC1 [Compound 88]	6.00 to 7.00	–	–
Cc1cc(Nc2nc(N[C@H]3CC[C@](C)(O)CC3)c3sccc3n2)cc(C)n1 [Compound 22]	6.00 to 7.00	–	–
O[C@H]1CC[C@H](Nc2nc(Nc3cnn(-c4ccccn4)c3)nc3ccsc23)CC1 [Compound 36]	6.00 to 7.00	–	–
O[C@H]1CC[C@H](Nc2nc(Nc3cnn(C4CCCC4)c3)nc3ccsc23)CC1 [Compound 27]	6.00 to 7.00	–	–
CCC1(O)CCC(Nc2nc(Nc3cc(C)ns3)nc3ccsc23)CC1 (centres unmarked) [Compound 12]	6.00 to 7.00	–	–
Cn1cc(Nc2nc(N[C@H]3CC[C@@H](N)CC3)c3sccc3n2)cn1 [Compound 84]	6.00 to 7.00	–	–
CC(=O)N1CCC(NC(=O)c2cc(Nc3nc(N[C@H]4CC[C@](C)(O)CC4)c4sccc4n3)sn2)CC1 [Compound 60]	6.00 to 7.00	–	–

Continued, in another order:

pIC50 [1]	pIC50 [3]	Compound	pIC50 [2]
≥ 7.00	≥ 6.30	COCCCn1ccc2nc(Nc3cc(C)ns3)nc(N[C@H]3CC[C@H](N4CCCCC4)CC3)c21 [Compound 105, 5-(3-methoxylpropyl)-N^4-(trans-4-(piperidin-1-yl)cyclohexyl)-N^2-(3-methylisothiazol-5-yl)-5H-pyrrolo[3,2-d]pyrimidine-2,4-diamine]	≥ 6.30
6.00 to 7.00	–	Cc1cc(Nc2nc(N[C@H]3CC[C@H](N)CC3)c3sccc3n2)sn1 [Compound 80]	–
6.00 to 7.00	–	CNC1CCN(C(=O)c2ccc(Nc3nc(N[C@H]4CC[C@H](O)CC4)c4sccc4n3)cc2)CC1 [Compound 67]	–
≥ 7.00	–	Cc1cc(Nc2nc(N[C@H]3C[C@H](N)C3)c3sccc3n2)sn1 [Compound 77, N^4-(trans-3-aminocyclobutyl)-N^2-(3-methylisothiazol-5-yl)thieno[3,2-d]pyrimidine-2,4-diamine]	–
6.00 to 7.00	–	C[C@]1(O)CC[C@H](Nc2nc(Nc3cc(C(=O)Nc4cccnc4)ns3)nc3ccsc23)CC1 [Compound 62]	–
6.00 to 7.00	–	Cc1cc(Nc2nc(N[C@H]3CC[C@H](O)CC3)c3occc3n2)sn1 [Compound 76, trans-4-((2-((3-methylisothiazol-5-yl)amino)furo[3,2-d]pyrimidin-4-yl)amino)cyclohexanol]	–
6.00 to 7.00	–	C[C@]1(O)CC[C@H](Nc2nc(Nc3cnn(C(=O)CC4CCNCC4)c3)nc3ccsc23)CC1 [Compound 44]	–
≥ 7.00	–	Cc1cc(Nc2nc(NC3CCC(CO)CC3)c3sccc3n2)sn1 (centres unmarked) [Compound 10]	–
≥ 7.00	–	COc1cc(Nc2nc(N[C@@H]3C[C@H](CO)[C@@H](O)[C@H]3O)c3sccc3n2)ccn1 [Compound 20]	–
≥ 7.00	–	O[C@H]1CC[C@H](Nc2nc(Nc3cnn(C4CCCNC4)c3)nc3ccsc23)CC1 (some centres unmarked) [Compound 28]	–
≥ 7.00	–	Cc1cc(Nc2nc(NC3CC(O)C3)c3sccc3n2)sn1 (centres unmarked) [Compound 2]	–
≥ 7.00	≥ 6.30	Cc1cc(Nc2nc(N[C@H]3CC[C@](C)(O)CC3)c3sccc3n2)sn1 [Compound 9]	≥ 6.30
≥ 7.00	–	O[C@H]1CC[C@H](Nc2nc(Nc3cnn(-c4ccccc4)c3)nc3ccsc23)CC1 [Compound 25, trans-4-((2-((1-phenyl-1H-pyrazol-4-yl)amino)thieno[3,2-d]pyrimidin-4-yl)amino)cyclohexanol]	–
≥ 7.00	–	Cc1cc(Nc2nc(N[C@H]3CC[C@H](O)CC3)c3sccc3n2)sn1 [Compound 1, trans-4-((2-((3-methylisothiazol-5-yl)amino)thieno[3,2-d]pyrimidin-4-yl)amino)cyclohexanol]	–
≥ 7.00	≥ 6.30	Cc1cc(Nc2nc(N[C@H]3CC[C@H](N4CCCCC4)CC3)c3sccc3n2)sn1 [Compound 98, N^4-(trans-4-(piperidin-1-yl)cyclohexyl)-N^2-(3-methylisothiazol-5-yl)thieno[3,2-d]pyrimidine-2,4-diamine]	≥ 6.30
≥ 7.00	–	Cc1cc(Nc2nc(N[C@H]3C[C@@](C)(O)C3)c3sccc3n2)sn1 [Compound 3]	–
≥ 7.00	–	CCN(CC)[C@H]1CC[C@H](Nc2nc(Nc3cc(C)ns3)nc3ccsc23)CC1 [Compound 94]	–
≥ 7.00	–	O[C@H]1CC[C@H](Nc2nc(Nc3cnn(-c4cccnc4)c3)nc3ccsc23)CC1 [Compound 37]	–
≥ 7.00	–	Cc1cc(Nc2nc(O[C@H]3CC[C@H](N4CCCC4)CC3)c3sccc3n2)sn1 [Compound 101]	–
≥ 7.00	–	C[C@]1(O)CC[C@H](Nc2nc(Nc3cc(C(=O)N[C@@H]4CCCNC4)ns3)nc3ccsc23)CC1 [Compound 56]	–

Source: US10988482B2, “IRAK4 inhibitor and use thereof” (BEIJING HANMI PHARMACEUTICAL CO., LTD., priority 2015, dated 2021)
